Source: patent EP4603105A1, “PHARMACEUTICAL COMPOSITION CONTAINING CYCLIC COMPOUND HAVING SELECTIVE KRAS INHIBITORY EFFECT AGAINST HRAS AND NRAS” (CHUGAI SEIYAKU KABUSHIKI KAISHA, priority 2022, dated 2024)

What was measured:
[1] = system: human lung cancer strain NCI-H441; assay: NCI-H441 cell proliferation inhibitory activity (CellTiter-Glo, 4 days); format: cell-based; conditions: NCI-H441 cells, 4 days, read-out: NCl-H441 IC50
Outline: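 Proliferation was scored by […] measured after the reagent was added to cultures kept at 37°C in 5% carbon dioxide.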

[2] = target: GDP-bound KRAS wild-type protein (Homo sapiens, UniProt P01116); assay: Binding to KRAS by surface plasmon resonance (SPR), dissociation constant KD; conditions: Single Cycle Kinetics
Sequence of GDP-bound KRAS wild-type protein (P01116 1-188 isoform P01116-2): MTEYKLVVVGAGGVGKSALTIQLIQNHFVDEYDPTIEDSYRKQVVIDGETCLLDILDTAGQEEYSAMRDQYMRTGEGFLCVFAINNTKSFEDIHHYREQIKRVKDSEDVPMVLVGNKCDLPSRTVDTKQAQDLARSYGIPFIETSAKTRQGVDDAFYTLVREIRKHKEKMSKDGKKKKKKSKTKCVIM
Outline: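 Affinity is measured by surface plasmon resonance at 30°C against captured, GDP-loaded RAS carrying a biotinylated Avi tag. Compounds are titrated by single-cycle kinetics, and KD comes from a 1:1 fit.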

[3] = target: HRAS wild-type protein (Homo sapiens, UniProt P01112); assay: Binding to HRAS by surface plasmon resonance (SPR), KD and KD ratio to KRAS; conditions: ratio of KD for HRAS wild-type protein to KD for KRAS
Sequence of HRAS wild-type protein (P01112 whole entry): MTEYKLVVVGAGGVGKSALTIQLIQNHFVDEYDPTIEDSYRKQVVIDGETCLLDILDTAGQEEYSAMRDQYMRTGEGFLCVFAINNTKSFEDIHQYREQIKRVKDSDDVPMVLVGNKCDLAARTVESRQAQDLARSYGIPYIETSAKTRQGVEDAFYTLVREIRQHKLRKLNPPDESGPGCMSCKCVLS
Outline: (§1)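 Compound binding is evaluated by SPR single-cycle kinetics, with concentrations added intermittently from low to high for 75 s each. Target surfaces carry GDP-loaded biotinylated Avi-RAS at about 100–300 RU, regenerated after each cycle; temperature 30°C. A 1:1 binding model gives KD.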

[4] = target: GDP-bound NRAS wild-type protein (Homo sapiens, UniProt P01111); assay: Binding to NRAS by surface plasmon resonance (SPR), KD and KD ratio to KRAS; conditions: ratio of KD for GDP-bound NRAS wild-type protein to KD for KRAS
Sequence of GDP-bound NRAS wild-type protein (P01111 whole entry): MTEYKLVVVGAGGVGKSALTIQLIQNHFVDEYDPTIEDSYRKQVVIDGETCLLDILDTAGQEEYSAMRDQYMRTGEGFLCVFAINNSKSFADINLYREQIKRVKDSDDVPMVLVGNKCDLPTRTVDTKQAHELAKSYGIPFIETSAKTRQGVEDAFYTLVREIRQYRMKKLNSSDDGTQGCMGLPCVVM
Outline: as §1

Structure (SMILES)	IC50 [1] [nM]	Kd [2] [nM]	HRAS /KRAS [3]	NRAS /KRAS [4]
CCO[C@@H]1C[C@H]2C(=O)NC3(CC(C)(C)C3)C(=O)N(C)[C@@H](C3CCCC3)C(=O)N(C)[C@H](C(=O)N(C)CC)CC(=O)N(C)[C@@H]([C@H](C)OC)C(=O)N[C@@H]([C@@H](C)CC)C(=O)N3CCC[C@H]3C(=O)N(C)[C@H]3C/C=C\CCN(C3=O)[C@@H](Cc3ccc(C(F)(F)F)cc3)C(=O)N(C)CC(=O)N[C@@H](CCc3cc(F)c(C(F)(F)F)c(F)c3)C(=O)N2C1 [PP3223]	49.6	1.1	A (a compound having 10 or more and less than 20 is denoted as A)	A (a compound having 10 or more and less than 20 is denoted as A)
CCO[C@@H]1C[C@H]2C(=O)NC3(CC(C)(C)C3)C(=O)N(C)[C@@H](C3CCCC3)C(=O)N(C)[C@H](C(=O)N(C)CC)CC(=O)N(C)[C@@H]([C@H](C)OC)C(=O)N[C@@H]([C@@H](C)CC)C(=O)N3CCC[C@H]3C(=O)N(C)[C@H]3C/C=C\CCN(C3=O)[C@@H](Cc3ccc(C(F)(F)F)cc3)C(=O)N(C)CC(=O)N[C@@H](CCc3ccc(C(F)(F)F)c(Cl)c3)C(=O)N2C1 [PP3224]	55.4	1.9	A (a compound having 10 or more and less than 20 is denoted as A)	A (a compound having 10 or more and less than 20 is denoted as A)
CCO[C@@H]1C[C@H]2C(=O)NC3(CC(C)(C)C3)C(=O)N(C)[C@@H](C3CCCC3)C(=O)N(C)[C@H](C(=O)N(C)CC)CC(=O)N(C)[C@@H]([C@H](C)OC)C(=O)N[C@@H]([C@@H](C)CC)C(=O)N(C)CC(=O)N(C)[C@H]3C/C=C\CCN(C3=O)[C@@H](Cc3ccc(C)cc3)C(=O)N(C)CC(=O)N[C@@H](CCc3cc(F)c(C(F)(F)F)c(F)c3)C(=O)N2C1 [PP3226]	12.4	0.3	B (a compound having 3 or more and less than 10 is denoted as B)	A (a compound having 10 or more and less than 20 is denoted as A)
CCO[C@@H]1C[C@H]2C(=O)NC3(CC(C)(C)C3)C(=O)N(C)[C@@H](C3CCCC3)C(=O)N(C)[C@H](C(=O)N(C)CC)CC(=O)N(C)[C@@H]([C@H](C)OC)C(=O)N[C@@H]([C@@H](C)CC)C(=O)N(C)CC(=O)N(C)[C@H]3C/C=C\CCN(C3=O)[C@@H](Cc3ccc(C)cc3)C(=O)N(C)CC(=O)N[C@@H](CCc3ccc(C(F)(F)F)c(Cl)c3)C(=O)N2C1 [PP3227]	23.2	0.21	A (a compound having 10 or more and less than 20 is denoted as A)	A (a compound having 10 or more and less than 20 is denoted as A)
CCO[C@@H]1C[C@H]2C(=O)NC3(CC(C)(C)C3)C(=O)N(C)[C@@H](C3CCCC3)C(=O)N(C)[C@H](C(=O)N(C)CC)CC(=O)N(C)[C@@H]([C@H](C)OC)C(=O)N[C@@H]([C@@H](C)CC)C(=O)N(C3CC3)CC(=O)N(C)[C@H]3C/C=C\CCN(C3=O)[C@@H](Cc3ccc(C)cc3)C(=O)N(C)CC(=O)N[C@@H](CCc3ccc(C(F)(F)F)c(OC)c3)C(=O)N2C1 [PP3228]	41.5	0.81	A (a compound having 10 or more and less than 20 is denoted as A)	A (a compound having 10 or more and less than 20 is denoted as A)
C#CC[C@H]1C(=O)N[C@@H]([C@@H](C)CC)C(=O)N(C)CC(=O)N(C)[C@H]2C/C=C\CCN(C2=O)[C@@H](Cc2ccc(C(F)(F)F)cc2)C(=O)N(C)CC(=O)N[C@@H](CCc2ccc(C(F)(F)F)c(OC)c2)C(=O)N2C[C@H](OCC)C[C@H]2C(=O)N(C)C2(CCC2)C(=O)N(C)[C@@H](C2CCCC2)C(=O)N(C)[C@H](C(=O)N(C)C)CC(=O)N1C [PP3230]	2.6	0.03	A (a compound having 10 or more and less than 20 is denoted as A)	A (a compound having 10 or more and less than 20 is denoted as A)

Now from value to compound, other results behind:

IC50 [1] [nM]	Kd [2] [nM]	Structure (SMILES)	HRAS /KRAS [3]	NRAS /KRAS [4]
7.4	0.064	CCC[C@H]1C(=O)N[C@@H]([C@@H](C)CC)C(=O)N(C)CC(=O)N(C)[C@H]2C/C=C\CCN(C2=O)[C@@H](Cc2ccc(C(F)(F)F)cc2)C(=O)N(C)CC(=O)N[C@@H](CCc2ccc(C(F)(F)F)c(Cl)c2)C(=O)N2CC[C@H](OC)[C@H]2C(=O)N(C)C2(CCC2)C(=O)N(C)[C@@H](C2CCCC2)C(=O)N(C)[C@H](C(=O)N(C)C)CC(=O)N1C [PP3231]	A (a compound having 10 or more and less than 20 is denoted as A)	A (a compound having 10 or more and less than 20 is denoted as A)
9.3	0.25	CCC[C@H]1C(=O)N[C@@H]([C@@H](C)CC)C(=O)N(C2CC2)CC(=O)N(C)[C@H]2C/C=C\CCN(C2=O)[C@@H](Cc2ccc(C)cc2)C(=O)N(C)CC(=O)N[C@@H](CCc2ccc(C(F)(F)F)c(Cl)c2)C(=O)N2CC[C@H](OC)[C@H]2C(=O)N(C)C2(CCC2)C(=O)N(C)[C@@H](C2CCCC2)C(=O)N(C)[C@H](C(=O)N(C)C)CC(=O)N1C [PP3233]	A (a compound having 10 or more and less than 20 is denoted as A)	A (a compound having 10 or more and less than 20 is denoted as A)
7	0.21	CCC[C@H]1C(=O)N[C@@H]([C@@H](C)CC)C(=O)N2CCC[C@H]2C(=O)N(C)[C@H]2C/C=C\CCN(C2=O)[C@@H](Cc2ccc(C)cc2)C(=O)N(C)CC(=O)N[C@@H](CCc2ccc(C(F)(F)F)c(Cl)c2)C(=O)N2CC[C@H](OC)[C@H]2C(=O)N(C)C2(CCC2)C(=O)N(C)[C@@H](C2CCCC2)C(=O)N(C)[C@H](C(=O)N(C)C)CC(=O)N1C [PP3235]	A (a compound having 10 or more and less than 20 is denoted as A)	A (a compound having 10 or more and less than 20 is denoted as A)
3.9	0.028	C#CC[C@H]1C(=O)N[C@@H]([C@@H](C)CC)C(=O)N(C)CC(=O)N(C)[C@H]2C/C=C\CCN(C2=O)[C@@H](Cc2ccc(C)cc2)C(=O)N(C)CC(=O)N[C@@H](CCc2ccc(C(F)(F)F)c(OC)c2)C(=O)N2C[C@H](OCC)C[C@H]2C(=O)N(C)C2(CCC2)C(=O)N(C)[C@@H](C2CCCC2)C(=O)N(C)[C@H](C(=O)N(C)C)CC(=O)N1C [PP3236]	B (a compound having 3 or more and less than 10 is denoted as B)	A (a compound having 10 or more and less than 20 is denoted as A)
6.1	0.057	CCC[C@H]1C(=O)N[C@@H]([C@@H](C)CC)C(=O)N(C)CC(=O)N(C)[C@H]2C/C=C\CCN(C2=O)[C@@H](Cc2ccc(C)cc2)C(=O)N(C)CC(=O)N[C@@H](CCc2ccc(C(F)(F)F)c(Cl)c2)C(=O)N2CC[C@H](OC)[C@H]2C(=O)N(C)C2(CCC2)C(=O)N(C)[C@@H](C2CCCC2)C(=O)N(C)[C@H](C(=O)N(C)C)CC(=O)N1C [PP3237]	B (a compound having 3 or more and less than 10 is denoted as B)	A (a compound having 10 or more and less than 20 is denoted as A)
6.5	0.23	CCC[C@H]1C(=O)N[C@@H]([C@@H](C)CC)C(=O)N(C2CC2)CC(=O)N(C)[C@H]2C/C=C\CCN(C2=O)[C@@H](Cc2ccc(C(F)(F)F)cc2)C(=O)N(C)CC(=O)N[C@@H](CCc2ccc(C(F)(F)F)c(OC)c2)C(=O)N2CC[C@H](OC)[C@H]2C(=O)N(C)C2(CCC2)C(=O)N(C)[C@@H](C2CCCC2)C(=O)N(C)[C@H](C(=O)N(C)C)CC(=O)N1C [PP3239]	A (a compound having 10 or more and less than 20 is denoted as A)	A (a compound having 10 or more and less than 20 is denoted as A)
2.3	0.024	C#CC[C@H]1C(=O)N[C@@H]([C@@H](C)CC)C(=O)N(C)CC(=O)N(C)[C@H]2C/C=C\CCN(C2=O)[C@@H](Cc2ccc(C)cc2)C(=O)N(C)CC(=O)N[C@@H](CCc2ccc(C(F)(F)F)c(Cl)c2)C(=O)N2C[C@H](OCC)C[C@H]2C(=O)N(C)C2(CCC2)C(=O)N(C)[C@@H](C2CCCC2)C(=O)N(C)[C@H](C(=O)N(C)C)CC(=O)N1C [PP3240]	A (a compound having 10 or more and less than 20 is denoted as A)	A (a compound having 10 or more and less than 20 is denoted as A)
10.5	0.31	CCC[C@H]1C(=O)N[C@@H]([C@@H](C)CC)C(=O)N2CCC[C@H]2C(=O)N(C)[C@H]2C/C=C\CCN(C2=O)[C@@H](Cc2ccc(C(F)(F)F)cc2)C(=O)N(C)CC(=O)N[C@@H](CCc2ccc(C(F)(F)F)c(OC)c2)C(=O)N2CC[C@H](OC)[C@H]2C(=O)N(C)C2(CCC2)C(=O)N(C)[C@@H](C2CCCC2)C(=O)N(C)[C@H](C(=O)N(C)C)CC(=O)N1C [PP3241]	B (a compound having 3 or more and less than 10 is denoted as B)	A (a compound having 10 or more and less than 20 is denoted as A)
6	0.097	C#CC[C@H]1C(=O)N[C@@H]([C@@H](C)CC)C(=O)N(C2CC2)CC(=O)N(C)[C@H]2C/C=C\CCN(C2=O)[C@@H](Cc2ccc(C(F)(F)F)cc2)C(=O)N(C)CC(=O)N[C@@H](CCc2ccc(C(F)(F)F)c(OC)c2)C(=O)N2C[C@H](OCC)C[C@H]2C(=O)N(C)C2(CCC2)C(=O)N(C)[C@@H](C2CCCC2)C(=O)N(C)[C@H](C(=O)N(C)C)CC(=O)N1C [PP3242]	A (a compound having 10 or more and less than 20 is denoted as A)	A (a compound having 10 or more and less than 20 is denoted as A)
